Experimental data reported in patent publication US12539301B2, “Compound external preparation for treating alopecia areata and preparation method therefor” (CHANGSHA JINGYI PHARMACEUTICAL TECHNOLOGY CO., LTD, priority 2020, dated 2026).
Structures can show the parent of a compound that is named as a salt. Where two headings read alike, the source gives them in different places.

How the values were obtained:
[1] = format: physicochemical; details: for Dissolution condition: 100 parts per 1 part API, 30 min, heating (60° C.), after cooling
Source text: Dissolution condition and dissolution required for quantifying the API in a quantitive solvent were used as preliminary evaluation indexes, and a solvent capable of dissolving both active ingredients is preferred. Icon meaning: x: insoluble (this system is a white opaque suspension with visible white solid particles); ∘: incompletely soluble (this system is partially transparent, with white visible bulk solids or suspended solids); √ completely soluble (the system is a completely transparent solution, without suspended substances and solid insoluble substances); and /: not investigated.

[2] = Solubility and storage stability (crystallization) of tofacitinib in gels and liniments with and without minoxidil; format: physicochemical; details: in water and an organic solvent, gel kept stable
Procedure: (1) Different proportions of tofacitinib were set, a mixture of water and an organic solvent was used as a mixed solvent, and a single gel and a compound gel, and a single liniment and a compound liniment were prepared for comparatively investigating dissolved states of tofacitinib in the preparations with and without addition of minoxidil. The samples were stored at the room temperature for 1 month after the preparations were prepared, and stability of tofacitinib was evaluated by whether crystallization occurred or not during the storage.
(2) For an unstable preparation which is easy to precipitate tofacitinib crystals during the storage, adjustments were made by adding an organic solvent component, a surfactant, a crystallization inhibitor, or a thickening agent, increasing an amount of minoxidil, for comparatively investigating improvement of the stability of tofacitinib in the preparations with the above methods.
Solubility: (∘: incompletely soluble; √: completely soluble); and stability: (x: crystallization and precipitation; √: non-crystallization) […]

C[C@@H]1CCN(C(=O)CC#N)C[C@@H]1N(C)c1ncnc2[nH]ccc12 [Tofacitinib citrate]
Solubility in single solvents (in words) [1]: poor solubility
Dissolution condition ([1]; Example 16-b: Propylene glycol:water = 1:9 (w/w)): ✓
Dissolution condition ([1]; Example 16-c: Propylene glycol:water = 3:7 (w/w)): ✓
Dissolution condition ([1]; Example 16-d: Propylene glycol:water = 5:5 (w/w)): ✓
Dissolution condition ([1]; Example 16-e: Propylene glycol:water = 7:3 (w/w)): ✓
Dissolution condition ([1]; Example 16-f: Propylene glycol:water = 9:1 (w/w)): ✓
Dissolution condition ([1]; Example 17: Propylene glycol:water:ethanol = 5:2:3 (w/w)): ✓
Amount of tofacitinib (calculated by the prototype) dissolved by minoxidil [2]: 0.05-1.0 times the amount of minoxidil
